# According to article PMC7093416, “Selective USP7 inhibition elicits cancer cell killing through a p53-dependent mechanism” (Scientific Reports, 2020):
# Values joined by “and” are separate entries in the source; they are usually repeats but may differ in a detail not shown here. Equal values may be shown once.
# Tested on: panel of 484 cancer cell lines
# Assay: PRISM cancer cell line profiling, 5 days
# Format: cell-based
# Parameters: Viability: scale not given here; AUC: unit not given beside the values
# Protocol: Cancer cell line profiling was performed using the Broad’s PRISM platform. Cell treatment and data analysis were performed as described in Yu et al[42]. Raw Luminex signal was converted to AUC values for each cell line as described. The resulting AUC profile for each compound was modeled against DepMap using the limma package in R[71]. Because hotspot mutation analysis was performed against DepMap, TP53 annotations in Fig. 6c,d are directly from DepMap.
# [1] = GCIY_STOMACH, pert_dose 6.10E-04
# [2] = GCT_SOFT_TISSUE, pert_dose 6.10E-04
# [3] = GI1_CENTRAL_NERVOUS_SYSTEM, pert_dose 6.10E-04
# [4] = GMS10_CENTRAL_NERVOUS_SYSTEM, pert_dose 6.10E-04
# [5] = GOS3_CENTRAL_NERVOUS_SYSTEM, pert_dose 6.10E-04
# [6] = HCC56_LARGE_INTESTINE, pert_dose 6.10E-04
# [7] = HCC366_LUNG, pert_dose 6.10E-04
# [8] = HCC1143_BREAST, pert_dose 6.10E-04
# [9] = HCC1195_LUNG, pert_dose 6.10E-04
# [10] = HCC1359_LUNG, pert_dose 6.10E-04
# [11] = HCC1419_BREAST, pert_dose 6.10E-04
# [12] = HCC1428_BREAST, pert_dose 6.10E-04
# [13] = HCC1438_LUNG, pert_dose 6.10E-04
# [14] = HCC1806_BREAST, pert_dose 6.10E-04
# [15] = HCC4006_LUNG, pert_dose 6.10E-04
# [16] = HCT15_LARGE_INTESTINE, pert_dose 6.10E-04
# [17] = HCT116_LARGE_INTESTINE, pert_dose 6.10E-04
# [18] = HDQP1_BREAST, pert_dose 6.10E-04
smiles,measurement,setting,value
COc1ccc(C2=N[C@@H](c3ccc(Cl)cc3)[C@@H](c3ccc(Cl)cc3)N2C(=O)N2CCNC(=O)C2)c(OC(C)C)c1 [Nutlin-3A],AUC,FTC238_THYROID,1.264
same,MFI FTC238_THYROID,"FTC238_THYROID, pert_dose 6.10E-04",2880 and 3372 and 2980.5 and 2950.5 and 4003.5
same,AUC,G292CLONEA141B1_BONE,1.148
same,AUC,G361_SKIN,1.031
same,MFI G361_SKIN,"G361_SKIN, pert_dose 6.10E-04",10064 and 9507.5 and 5703 and 7102 and 9477
same,AUC,G401_SOFT_TISSUE,0.8138
same,AUC,G402_SOFT_TISSUE,0.8312
same,MFI G402_SOFT_TISSUE,"G402_SOFT_TISSUE, pert_dose 6.10E-04",8566 and 7883 and 9123.5 and 10028.5 and 7843.5
same,AUC,GAMG_CENTRAL_NERVOUS_SYSTEM,1.104
same,AUC,GB1_CENTRAL_NERVOUS_SYSTEM,1.08
same,MFI GB1_CENTRAL_NERVOUS_SYSTEM,"GB1_CENTRAL_NERVOUS_SYSTEM, pert_dose 6.10E-04",8797 and 10917.5 and 10369 and 11626 and 6173
same,AUC,GCIY_STOMACH,1.0178
same,MFI GCIY_STOMACH,[1],10513.5 and 10287.5 and 8158.5 and 7393 and 6559.5
same,Viability,[1],1.05
same,AUC,GCT_SOFT_TISSUE,1.1243
same,MFI GCT_SOFT_TISSUE,[2],30402 and 32248 and 27974 and 25401 and 26115.5
same,Viability,[2],1.1
same,AUC,GI1_CENTRAL_NERVOUS_SYSTEM,1.1989
same,MFI GI1_CENTRAL_NERVOUS_SYSTEM,[3],7007.5 and 7677 and 5613.5 and 9782 and 8476.5
same,Viability,[3],1.209
same,AUC,GMS10_CENTRAL_NERVOUS_SYSTEM,1.196
same,MFI GMS10_CENTRAL_NERVOUS_SYSTEM,[4],2195 and 3287.5 and 2615 and 2263.5 and 2230
same,Viability,[4],0.8757
same,AUC,GOS3_CENTRAL_NERVOUS_SYSTEM,0.8893
same,MFI GOS3_CENTRAL_NERVOUS_SYSTEM,[5],16506.5 and 12732.5 and 12479 and 15312 and 16884
same,Viability,[5],1.256
same,AUC,GP2D_LARGE_INTESTINE,0.8664
same,AUC,H4_CENTRAL_NERVOUS_SYSTEM,0.8741
same,AUC,HARA_LUNG,1.148
same,MFI HARA_LUNG,"HARA_LUNG, pert_dose 6.10E-04",10420 and 10731 and 9850 and 12219 and 8432
same,Viability,"HARA_LUNG, pert_dose 6.10E-04",1.156
same,AUC,HCC15_LUNG,1.083
same,MFI HCC15_LUNG,"HCC15_LUNG, pert_dose 6.10E-04",10708.5 and 9658 and 9646.5 and 7600 and 8929.5
same,AUC,HCC38_BREAST,1.13
same,AUC,HCC44_LUNG,1.143
same,MFI HCC44_LUNG,"HCC44_LUNG, pert_dose 6.10E-04",8858.5 and 14957 and 12427 and 9895 and 9714
same,Viability,"HCC44_LUNG, pert_dose 6.10E-04",0.9479
same,AUC,HCC56_LARGE_INTESTINE,1.116
same,MFI HCC56_LARGE_INTESTINE,[6],22390 and 19383.5 and 18019.5 and 16274 and 12370
same,Viability,[6],1.19
same,AUC,HCC78_LUNG,1.129
same,MFI HCC78_LUNG,"HCC78_LUNG, pert_dose 6.10E-04",13938.5 and 17123.5 and 16093 and 13546.5 and 12989
same,Viability,"HCC78_LUNG, pert_dose 6.10E-04",1.137
same,AUC,HCC95_LUNG,1.133
same,MFI HCC95_LUNG,"HCC95_LUNG, pert_dose 6.10E-04",19085 and 17009 and 14223 and 15820 and 14624.5
same,Viability,"HCC95_LUNG, pert_dose 6.10E-04",1.3736
same,AUC,HCC366_LUNG,1.1015
same,MFI HCC366_LUNG,[7],3176 and 4976 and 3338 and 4080 and 5551.5
same,Viability,[7],0.8601
same,AUC,HCC827_LUNG,1.216
same,AUC,HCC1143_BREAST,1.173
same,MFI HCC1143_BREAST,[8],10292 and 10056.5 and 12994 and 8725 and 11412
same,Viability,[8],1.09
same,AUC,HCC1195_LUNG,0.9896
same,MFI HCC1195_LUNG,[9],3248 and 2450 and 2557 and 3311 and 2339
same,Viability,[9],0.8066
same,AUC,HCC1359_LUNG,1.205
same,MFI HCC1359_LUNG,[10],3254.5 and 3202.5 and 4282 and 3759 and 4252
same,Viability,[10],1.0552
same,AUC,HCC1419_BREAST,1.157
same,MFI HCC1419_BREAST,[11],4554 and 3766 and 6250 and 4022 and 3342
same,Viability,[11],1.3281
same,AUC,HCC1428_BREAST,1.0418
same,MFI HCC1428_BREAST,[12],5601.5 and 4304.5 and 6512 and 4295 and 6602.5
same,Viability,[12],0.9769
same,AUC,HCC1438_LUNG,1.064
same,MFI HCC1438_LUNG,[13],3705.5 and 4037.5 and 3791 and 2958 and 2338
same,Viability,[13],1.029
same,AUC,HCC1588_LUNG,0.8674
same,MFI HCC1588_LUNG,"HCC1588_LUNG, pert_dose 6.10E-04",12748 and 13169 and 10479 and 16252.5 and 12413.5
same,AUC,HCC1806_BREAST,1.223
same,MFI HCC1806_BREAST,[14],4998.5 and 5222.5 and 6609 and 6768 and 3833.5
same,Viability,[14],1.444
same,AUC,HCC1937_BREAST,1.259
same,Viability,"HCC1937_BREAST, pert_dose 6.10E-04",0.8468
same,AUC,HCC4006_LUNG,1.075
same,MFI HCC4006_LUNG,[15],13511 and 17514.5 and 15021 and 17956 and 15891.5
same,Viability,[15],1.081
same,AUC,HCT15_LARGE_INTESTINE,1.231
same,MFI HCT15_LARGE_INTESTINE,[16],19712 and 17910 and 19958 and 21240.5 and 15477
same,Viability,[16],1.456
same,AUC,HCT116_LARGE_INTESTINE,0.9703
same,MFI HCT116_LARGE_INTESTINE,[17],29799 and 33721.5 and 25531.5 and 28789.5 and 30554.5
same,Viability,[17],1.204
same,AUC,HDQP1_BREAST,1.144
same,MFI HDQP1_BREAST,[18],7912.5 and 7534 and 9203 and 8805.5 and 8820
same,Viability,[18],1.159
same,AUC,HEC1A_ENDOMETRIUM,0.9522
same,AUC,HEC1B_ENDOMETRIUM,1.073
same,Viability,"HEC1B_ENDOMETRIUM, pert_dose 6.10E-04",0.9409
same,AUC,HEC6_ENDOMETRIUM,1.185
